{"source": "patent US20240326697A1", "about": "“SOLID FORMS OF SELECTIVE ANDROGEN RECEPTOR MODULATORS” (priority 2007, published 2024)", "format_in_all_cases": "physicochemical", "key": {"[1]": {"assay": "Measurement of the approximate solubility (solvent added in steps to the solid)", "settings": "ethyl acetate/n-heptane 1:2 v/v, 23° C. (B′: solid form transformation into solid form A)", "description": "To determine the approximate solubility at room temperature, the solvent was added in steps to the solid material. After every addition, the sample was well stirred. The addition of solvent was continued until complete dissolution or until 15 ml of solvent was added."}, "[2]": {"assay": "Water solubility of solid forms A and B′ (suspension shaken, filtered, HPLC; residue by Raman)", "settings": "22° C.; for Solid residue: Raman, rough estimate; for solubility: mean of two measurements (±standard deviation)", "description": "During the following experiments: suspension equilibration, precipitation experiment, recrystallization, relative stability experiments and water solubility experiment, a filtration step was conducted. Centrifugal filter devices: Ultrafree-CL (0.22 la,m), Millipore; Centrifuge type or Eppendorf 5804R were used at a temperature of 22° C. and centrifugation program of 2 min 3000 rpm.\nHPLC was used to analyse the purity of S-1. HP 1090M HPLC machine was used with the following conditions: • Column: Symmetry Shield RP18, 3.9×150 mm, 5 μm • Column temperature: 35° C. • Injection volume: 10 μL • Solvent: acetonitrile+water 1:1 v/v • Mobile phase A: 0.1% TFA-water • Mobile phase B: 0.1% TFA-acetonitrile • Flow rate: 1 mL/min. • Detection: UV at 271 nm • Run time: 21 min. • Retention time (S-1): 10.7 min.\nSuspensions of the solid forms (25 or 50 mg in 3.5 or 7.0 ml bidistilled water) were shaken (800 rpm) and filtered after 0.5 h, 1.5 h, 4 h and 20 h. After filtration the solid residue was checked by Raman spectroscopy and the concentration in the clear solution was determined by HPLC."}, "[3]": {"assay": "Suspension equilibration experiments", "description": "Suspension equilibration experiments were carried out with 81-128 mg of the compound. The suspensions were stirred with a magnetic stirrer. The samples obtained after filtration were air dried at ambient temperature for a short time only to prevent possible desolvation of labile hydrates or solvates."}, "[4]": {"assay": "Dynamic vapor sorption (DVS)", "settings": "25° C.", "description": "Dynamic vapor sorption quantification relates the mass of water absorbed and subsequently desorbed during the crystallization process. In order to define whether batch P1, P2 and P4 are hydrated polymorphs, DVS measurements were conducted (FIG. 9). A sample (13 to 14 mg) was placed on a Pt pan, and the sample was allowed to equilibrate at 25° C./50% r.h. before starting a pre-defined humidity program (1.0 hours 50%, from 50% r.h. to 95% r.h.: 5% r.h./hour, 10 hours at 95% r.h., from 95% r.h. to 0% r.h.: 5% r.h./hour, 10 hours at 0% r.h., from 0% r.h. to 50% r.h.: 5% r.h./hour, 1 hours at 50% r.h."}, "[5]": {"assay": "Relative stability of polymorphic forms under humid conditions (storage, DSC)", "settings": "50° C./75% RH as well as ambient/75% RH, ambient/100% RH, 30° C./75% RH and 50° C./0% RH", "description": "(§1) Thermal analysis was carried out with a Perkin Elmer DSC7 with the following experimental conditions: 3 to 6 mg sample mass, closed gold sample pan, temperature range −50° C. to 120° C., heating rate 20 K/min. The samples were weighed in air or dry N2 atmosphere. Additional thermal analysis was conducted using a TA Instruments Q1000 DSC using hermetic aluminum pans under various conditions.\nPolymorph A stays stable in its A form for at least 7 days under storage conditions of ambient temperature/75% RH (Relative Humidity), ambient temperature/100% RH, 30° C./75% RH and 50° C./0% RH.\nIn fact, polymorph D in the presence of moisture acts as the seed for the crystallization process and drives the transformation of polymorphs A and B′ into D, similar to its role in seeding the A to D crystallization in dry conditions. […] The amount of polymorph D initially added to the sample is very small that it isn't detectable by the DSC with heating rate of 10° C./min. […] The transformation process is speeded up in FIG. 17G (b) by storing the sample in water at 50° C. […] Further work has shown that the A and B′ convert to D in the presence of moisture at lower temperatures also albeit at slower rates."}, "[6]": {"assay": "Relative stability of toluene solvate in toluene / solubility in toluene", "description": "Recrystallization of S-1 from a solvent/antisolvent system that uses toluene as the antisolvent produces the toluene solvate. Toluene solvate has a melting point near 100° C. with the enthalpy of melting 70±5 J/g."}, "[7]": {"assay": "Relative stability of polymorphic forms under dry conditions (heating, micronization)", "settings": "heating to 110° C. in the presence of D", "description": "as §1\nThus forms A and B″ can be considered to be practically stable at ambient temperature. […] Micronization of the polymorph A particles under dry conditions also produced ˜25% conversion to B″."}}, "note": "“And” between values parts separate entries of the source, which are not always exact repeats. Equal values may be shown once. Marks after values point to notes of the source that are not given here."}
{"smiles": "C[C@](O)(COc1ccc(C#N)cc1)C(=O)Nc1ccc(C#N)c(C(F)(F)F)c1", "note": "[Form B′, (S)-N-(4-cyano-3-(trifluoromethyl)phenyl)-3-(4-cyanophenoxy)-2-hydroxy-2-methylpropanamide]", "values": [{"measurement": "solubility", "setting": "[1]", "result": ">9", "unit": "solid form mg/ml"}, {"measurement": "solubility in water", "setting": "[2]; stated as embodiment", "result": "20 to 30 µg/mL and 23 to 27 µg/mL"}, {"measurement": "Solid residue", "setting": "[2]; water, 0.5 h", "result": "B′"}, {"measurement": "Solid residue", "setting": "[2]; water, 1.5 h", "result": "B′"}, {"measurement": "Solid residue", "setting": "[2]; water, 4.0 h", "result": "B′"}, {"measurement": "Solid residue", "setting": "[2]; water, 20 h", "result": "B′"}, {"measurement": "pH of the solution", "setting": "[2]; water, 20 h suspension equilibration", "result": "d) pH of the solution: 8.7"}, {"measurement": "solubility", "setting": "[2]; water, suspension equilibration time 0.5 h", "result": "27.4 ± 0.9", "unit": "mg/1000 ml"}, {"measurement": "solubility", "setting": "[2]; water, suspension equilibration time 1.5 h", "result": "27.3 ± 0.8", "unit": "mg/1000 ml"}, {"measurement": "solubility", "setting": "[2]; water, suspension equilibration time 1.5 h, listed as B′", "result": "27.3±0.8", "unit": "mg/1000 ml"}, {"measurement": "solubility", "setting": "[2]; water, suspension equilibration time 4.0 h", "result": "25.6 ± 0.1", "unit": "mg/1000 ml"}, {"measurement": "solubility", "setting": "[2]; water, suspension equilibration time 20 h", "result": "26.7 ± 0.3 ^c) mg/1000 ml"}, {"measurement": "Form produced", "setting": "[3]; ethyl acetate + n-heptane 1:2 v/v 81/1.7 mg/ml, stirred 2 h/23° C.", "result": "transformed into solid form A"}, {"measurement": "Form produced", "setting": "[3]; ethyl acetate + n-pentane 1:2 v/v 101/1.0 mg/ml, stirred 22 h/23° C.", "result": "transformed into solid form A"}, {"measurement": "maximum water content at 94% r.h.", "setting": "[4]; listed as solid form B′", "result": "approx. 2.4%"}]}
{"smiles": "C[C@](O)(COc1ccc(C#N)cc1)C(=O)Nc1ccc(C#N)c(C(F)(F)F)c1", "note": "[Form D, (S)-N-(4-cyano-3-(trifluoromethyl)phenyl)-3-(4-cyanophenoxy)-2-hydroxy-2-methylpropanamide]", "values": [{"measurement": "solid form stability on storage", "setting": "[5]", "result": "stable"}, {"measurement": "solid form stability on storage", "setting": "[5]; listed as Polymorph D", "result": "remains stable"}, {"measurement": "transformation in toluene suspension", "setting": "[6]; sonication of the suspension for 10 minutes", "result": "partial transformation to the toluene solvate"}, {"measurement": "transformation in toluene suspension", "setting": "[6]; suspension (50 mg/mL) in toluene for 4 days, both at ambient temperature and 50° C.", "result": "no noticeable transformation from form D to the toluene solvate"}]}
{"smiles": "C[C@](O)(COc1ccc(C#N)cc1)C(=O)Nc1ccc(C#N)c(C(F)(F)F)c1", "note": "[Form B″, (S)-N-(4-cyano-3-(trifluoromethyl)phenyl)-3-(4-cyanophenoxy)-2-hydroxy-2-methylpropanamide]", "values": [{"measurement": "solid form change on heating", "setting": "[7]", "result": "rearrange into D"}]}
{"smiles": "C[C@](O)(COc1ccc(C#N)cc1)C(=O)Nc1ccc(C#N)c(C(F)(F)F)c1", "note": "[Form S-1, (S)-N-(4-cyano-3-(trifluoromethyl)phenyl)-3-(4-cyanophenoxy)-2-hydroxy-2-methylpropanamide]", "values": [{"measurement": "solubility", "setting": "[6]; toluene, organic solvent or mixture", "result": "< 2000", "unit": "µg/mL"}]}
{"smiles": "C[C@](O)(COc1ccc(C#N)cc1)C(=O)Nc1ccc(C#N)c(C(F)(F)F)c1", "note": "[Form S-1-P1, (S)-N-(4-cyano-3-(trifluoromethyl)phenyl)-3-(4-cyanophenoxy)-2-hydroxy-2-methylpropanamide]", "values": [{"measurement": "maximum water content at 93% r.h.", "setting": "[4]", "result": 1.5, "unit": "%"}, {"measurement": "water content at 50% r.h.", "setting": "[4]", "result": "water content at 50% r.h.: 0.4%"}]}
{"smiles": "C[C@](O)(COc1ccc(C#N)cc1)C(=O)Nc1ccc(C#N)c(C(F)(F)F)c1", "note": "[Form S-1-P4, (S)-N-(4-cyano-3-(trifluoromethyl)phenyl)-3-(4-cyanophenoxy)-2-hydroxy-2-methylpropanamide]", "values": [{"measurement": "maximum water content at 94% r.h.", "setting": "[4]", "result": "r.h.: ~2.4%"}, {"measurement": "water content at 50% r.h.", "setting": "[4]", "result": "water content at 50% r.h.: ~0.8%"}]}
{"smiles": "C[C@](O)(COc1ccc(C#N)cc1)C(=O)Nc1ccc(C#N)c(C(F)(F)F)c1", "note": "[Form S-1-P2, (S)-N-(4-cyano-3-(trifluoromethyl)phenyl)-3-(4-cyanophenoxy)-2-hydroxy-2-methylpropanamide]", "values": [{"measurement": "maximum water content at 95% r.h.", "setting": "[4]", "result": 0.6, "unit": "%"}, {"measurement": "water content at 50% r.h.", "setting": "[4]", "result": "water content at 50% r.h.: 0.3%"}]}
